According to ChEMBL document CHEMBL4825723, “Synthesis of new methoxy derivatives of trans 2,3-diaryl-2,3-dihydrobenzofurans and evaluation of their anti-inflammatory activity” (Bioorg Med Chem Lett, 2021):
The source made the active and inactive calls. No cut-off for these calls is given here.

Experiments:
[1] = test system: U-937; assay: Anti-inflammatory activity in human U-937 cells assessed as reduction in LPS-induced ROS production at 0.01 uM followed by LPS stimulation and measured after 24 hrs relative to control; format: functional, cell-based
[2] = test system: U-937; assay: Cytotoxicity against human U-937 cells assessed as cell viability at 0.01 uM measured after 72 hrs; format: cell-based; settings: u-937, 72 h
[3] = biological target: T1, Nuclear factor NF-kappa-B complex (Homo sapiens) (UniProt Q00653+P19838+Q04206); assay: Inhibition of NF-kappaB in human U-937 cells assessed as reduction in translocation of p65 NF-kappaB in from cytosol to nucleus at 0.01 uM treated followed by 3 hrs LPS stimulation hrs by immunohistochemical staining/confocal microscopy; format: cell-based
T1 sequence (P19838 whole entry, looked up): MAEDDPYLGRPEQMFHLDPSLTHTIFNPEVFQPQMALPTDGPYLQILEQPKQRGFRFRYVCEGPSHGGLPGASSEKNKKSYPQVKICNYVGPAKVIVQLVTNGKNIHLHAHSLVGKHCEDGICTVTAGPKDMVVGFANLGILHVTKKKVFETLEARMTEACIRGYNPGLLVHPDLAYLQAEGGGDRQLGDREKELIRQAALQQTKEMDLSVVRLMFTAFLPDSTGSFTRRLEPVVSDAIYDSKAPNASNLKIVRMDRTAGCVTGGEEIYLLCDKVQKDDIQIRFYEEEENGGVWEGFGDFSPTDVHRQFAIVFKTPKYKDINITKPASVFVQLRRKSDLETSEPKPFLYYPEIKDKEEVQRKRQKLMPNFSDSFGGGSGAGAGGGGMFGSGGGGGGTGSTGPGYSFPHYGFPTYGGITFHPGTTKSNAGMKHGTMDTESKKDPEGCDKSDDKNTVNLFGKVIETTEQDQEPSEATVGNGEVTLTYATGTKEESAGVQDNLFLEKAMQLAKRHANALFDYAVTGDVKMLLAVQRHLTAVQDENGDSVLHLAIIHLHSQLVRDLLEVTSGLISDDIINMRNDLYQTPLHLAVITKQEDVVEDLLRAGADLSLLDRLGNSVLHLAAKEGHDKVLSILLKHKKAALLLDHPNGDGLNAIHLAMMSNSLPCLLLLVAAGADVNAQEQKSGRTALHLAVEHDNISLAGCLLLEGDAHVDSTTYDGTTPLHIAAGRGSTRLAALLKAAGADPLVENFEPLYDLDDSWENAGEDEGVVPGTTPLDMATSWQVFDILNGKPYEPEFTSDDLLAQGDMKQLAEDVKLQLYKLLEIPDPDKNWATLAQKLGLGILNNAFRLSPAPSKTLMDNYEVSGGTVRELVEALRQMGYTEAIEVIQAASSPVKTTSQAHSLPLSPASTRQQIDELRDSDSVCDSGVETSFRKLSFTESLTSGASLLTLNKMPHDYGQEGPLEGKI
T1 sequence (Q00653 whole entry, looked up): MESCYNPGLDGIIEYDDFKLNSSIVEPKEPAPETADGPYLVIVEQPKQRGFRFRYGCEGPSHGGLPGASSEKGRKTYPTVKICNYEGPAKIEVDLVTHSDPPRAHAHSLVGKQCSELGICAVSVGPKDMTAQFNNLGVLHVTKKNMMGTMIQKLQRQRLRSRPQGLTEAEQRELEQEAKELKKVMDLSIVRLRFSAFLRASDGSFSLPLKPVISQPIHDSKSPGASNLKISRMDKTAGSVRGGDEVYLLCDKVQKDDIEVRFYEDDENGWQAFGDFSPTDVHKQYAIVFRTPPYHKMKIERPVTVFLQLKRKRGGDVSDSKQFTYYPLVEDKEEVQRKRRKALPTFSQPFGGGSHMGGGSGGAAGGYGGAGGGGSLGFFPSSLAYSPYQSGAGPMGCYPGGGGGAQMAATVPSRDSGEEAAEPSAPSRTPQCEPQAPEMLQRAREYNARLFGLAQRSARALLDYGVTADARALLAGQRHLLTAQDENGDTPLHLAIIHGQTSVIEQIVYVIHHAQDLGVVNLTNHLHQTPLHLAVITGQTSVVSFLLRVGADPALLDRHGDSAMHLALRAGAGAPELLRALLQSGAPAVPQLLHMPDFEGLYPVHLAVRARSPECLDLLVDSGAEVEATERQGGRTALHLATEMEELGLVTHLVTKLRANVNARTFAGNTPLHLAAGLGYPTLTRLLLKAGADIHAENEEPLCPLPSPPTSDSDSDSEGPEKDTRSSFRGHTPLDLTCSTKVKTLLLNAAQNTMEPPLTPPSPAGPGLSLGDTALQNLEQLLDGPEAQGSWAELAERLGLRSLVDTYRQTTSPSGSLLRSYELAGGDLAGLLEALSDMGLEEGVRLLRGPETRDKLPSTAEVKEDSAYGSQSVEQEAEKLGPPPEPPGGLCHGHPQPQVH
T1 sequence (Q04206 whole entry, looked up): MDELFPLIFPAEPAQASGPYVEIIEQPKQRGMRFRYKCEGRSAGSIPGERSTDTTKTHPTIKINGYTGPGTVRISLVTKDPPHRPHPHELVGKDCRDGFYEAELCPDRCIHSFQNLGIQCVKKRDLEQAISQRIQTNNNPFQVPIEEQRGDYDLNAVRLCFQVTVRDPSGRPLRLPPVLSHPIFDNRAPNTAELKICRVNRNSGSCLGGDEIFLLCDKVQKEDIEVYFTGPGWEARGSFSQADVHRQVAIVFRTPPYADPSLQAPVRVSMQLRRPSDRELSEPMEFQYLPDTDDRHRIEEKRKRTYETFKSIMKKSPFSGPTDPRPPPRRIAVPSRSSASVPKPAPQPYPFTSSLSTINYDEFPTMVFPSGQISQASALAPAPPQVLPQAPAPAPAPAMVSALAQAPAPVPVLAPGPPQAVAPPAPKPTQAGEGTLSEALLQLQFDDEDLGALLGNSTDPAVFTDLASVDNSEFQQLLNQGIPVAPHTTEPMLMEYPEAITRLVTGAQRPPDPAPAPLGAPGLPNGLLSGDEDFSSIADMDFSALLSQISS

[4] = test system: U-937; assay: Anti-inflammatory activity in human U-937 cells assessed as reduction in LPS-induced NO production at 0.01 uM followed by LPS stimulation and measured after 24 hrs relative to control; format: functional, cell-based
[5] = biological target: T1, Nuclear factor NF-kappa-B complex (Homo sapiens); assay: Inhibition of NF-kappaB in human U-937 cells assessed as reduction in LPS-induced p65 expression at 0.01 uM treated followed by 3 hrs LPS stimulation by Western blot analysis; format: cell-based
[6] = biological target: T1, Nuclear factor NF-kappa-B complex (Homo sapiens); assay: Inhibition of NF-kappaB in human U-937 cells assessed as reduction in translocation of p65 NF-kappaB in from cytosol to nucleus at 0.01 uM treated followed by 3 hrs LPS stimulation by Western blot analysis; format: cell-based
[7] = biological target: T1, Nuclear factor NF-kappa-B complex (Homo sapiens); assay: Inhibition of NF-kappaB activation in human U-937 cells assessed as reduction in LPS-induced PGE2 production after 48 hrs; format: cell-based
[8] = biological target: T1, Nuclear factor NF-kappa-B complex (Homo sapiens); assay: Inhibition of NF-kappaB activation in human U-937 cells assessed as reduction in LPS-induced ACLY activity after 48 hrs; format: cell-based

Row | inhibition [3] | Inhibition of LPS-induced p65 expression [5] | inhibition [6] | inhibition [7] | inhibition [8] | inhibition ([8]; concentration not given here) [%] | inhibition ([7]; concentration not given here) [%] | SMILES | Activity [1] | Activity [2] | Activity [4]
1 | Active | Active | Active |  |  |  |  | CO[C@@]1(c2ccccc2)c2ccccc2O[C@H]1c1ccccc1 | Active | Non-Toxic | Active
2 |  |  |  |  |  |  |  | COc1ccc2c(c1)[C@@H](c1ccccc1)[C@H](c1ccccc1)O2 [listing 1 of 2 here] |  | Non-Toxic | 
3 | Active |  | Active | Active | Active |  |  | COc1ccc2c(c1)[C@@H](c1ccccc1)[C@H](c1ccccc1)O2 [listing 2 of 2 here] | Active |  | Active
4 | Active | Active | Active |  |  |  |  | COc1ccc2c(c1)[C@@H](c1ccccc1)[C@H](c1ccccc1)O2 (single isomer, unassigned) |  |  | 
5 | Active | Active | Active |  |  |  |  | COc1ccc2c(c1)[C@@H](c1ccc(Br)cc1)[C@H](c1ccccc1)O2 | Active | Non-Toxic | Active
6 | Active | Active | Active |  |  |  |  | COc1ccc2c(c1)[C@@H](c1ccc(Br)cc1)[C@@H](c1ccccc1)O2 | Active | Non-Toxic | Active
7 |  |  |  |  |  |  |  | COc1ccc2c(c1)C(c1cc(Br)cc(Br)c1)C(c1ccccc1)O2 (stereo not given) |  | Non-Toxic | 
8 | Active | Active | Active | Active |  | 32 |  | COc1ccc2c(c1)C(c1ccccc1)C(c1ccccc1)O2 (racemic) | Active |  | Active
9 | Active | Active | Active |  |  | 43 | 28 | COc1ccc2c(c1)[C@@H](c1ccccc1)[C@H](c1ccccc1)O2 (mixture of isomers) | Active |  | Active
10 |  | Active |  |  |  |  |  | COC1(c2ccc(Br)cc2)c2ccccc2OC1c1ccccc1 (mixture of isomers) |  | Toxic | 
